According to ChEMBL document CHEMBL5150076, “Discovery of Novel Orally Bioavailable Triazoles with Potent and Broad-Spectrum Antifungal Activity In Vitro and In Vivo” (J Med Chem, 2022):
Converted amounts (≈) assume the structure as drawn.

Legend:
Type in all cases: functional
Aspergillus fumigatus = experiment: Antifungal activity against Aspergillus fumigatus 7544 incubated for 48 hrs by microbroth dilution method
Candida albicans [1] = experiment: Antifungal activity against Candida albicans SC5314 incubated for 24 hrs by microbroth dilution method
Cryptococcus neoformans [2] = experiment: Antifungal activity against Cryptococcus neoformans H99 incubated for 72 hrs by microbroth dilution method
Trichophyton rubrum = experiment: Antifungal activity against Trichophyton rubrum cmccftla
Nakaseomyces glabratus = experiment: Antifungal activity against Candida glabrata 537
Candida parapsilosis = experiment: Antifungal activity against Candida parapsilosis 22019; settings: Lodderomyces parapsilosis
Candida albicans [3] = experiment: Antifungal activity against Candida albicans Y0109
Cryptococcus neoformans [4] = experiment: Antifungal activity against Cryptococcus neoformans 32605
Nannizzia gypsea = experiment: Antifungal activity against Microsporum gypseum

Row | SMILES | MIC (Aspergillus fumigatus) [µg/mL] | MIC (Candida albicans [1]) [µg/mL] | MIC (Cryptococcus neoformans [2]) [µg/mL] | MIC (Trichophyton rubrum) [µg/mL] | MIC (Nakaseomyces glabratus) [µg/mL] | MIC (Candida parapsilosis) [µg/mL] | MIC (Candida albicans [3]) [µg/mL] | MIC (Cryptococcus neoformans [4]) [µg/mL] | MIC (Nannizzia gypsea) [µg/mL]
1 | C[C@@H](c1cn(-c2cncnc2)nn1)[C@](O)(Cn1cncn1)c1ccc(F)cc1F | 64 (≈ 161 µM) | 0.5 (≈ 1.26 µM) | 4 (≈ 10 µM) | – | – | – | – | – | –
2 | C[C@@H](c1cn(-c2ccc(C(F)(F)F)cc2)nn1)[C@](O)(Cn1cncn1)c1ccc(F)cc1F | 16 (≈ 34.5 µM) | 0.0625 (≈ 0.135 µM) | 0.0625 (≈ 0.135 µM) | – | – | – | – | – | –
3 | C[C@@H](c1cn(-c2cccnc2)nn1)[C@](O)(Cn1cncn1)c1ccc(F)cc1F | 32 (≈ 80.5 µM) | 0.25 (≈ 0.629 µM) | 2 (≈ 5.03 µM) | – | – | – | – | – | –
4 | C[C@@H](c1cn(-c2ccc(Cl)c(F)c2)nn1)[C@](O)(Cn1cncn1)c1ccc(F)cc1F | 16 (≈ 35.6 µM) | 0.0313 (≈ 0.0697 µM) | 0.0625 (≈ 0.139 µM) | – | – | – | – | – | –
5 | C[C@@H](c1cn(-c2ccc(OCC(F)(F)C(F)(F)F)cc2)nn1)[C@](O)(Cn1cncn1)c1ccc(F)cc1F | 8 (≈ 14.7 µM) | – | 0.0625 (≈ 0.115 µM) | – | – | – | – | – | –
6 | C[C@@H](c1cn(-c2ccc(Br)cc2)nn1)[C@](O)(Cn1cncn1)c1ccc(F)cc1F | 8 (≈ 16.8 µM) | 0.0625 (≈ 0.131 µM) | 0.125 (≈ 0.263 µM) | – | – | – | – | – | –
7 | C[C@@H](c1cn(-c2ccc(OCc3ccc(C(C)(C)C)cc3)cc2)nn1)[C@](O)(Cn1cncn1)c1ccc(F)cc1F | > 64 | 0.125 (≈ 0.224 µM) | 0.5 (≈ 0.895 µM) | – | – | – | – | – | –
8 | CCCCCCOc1ccc(-n2cc([C@H](C)[C@](O)(Cn3cncn3)c3ccc(F)cc3F)nn2)cc1 | 8 (≈ 16.1 µM) | 0.125 (≈ 0.252 µM) | 0.0625 (≈ 0.126 µM) | – | – | – | – | – | –
9 | C[C@@H](c1cn(-c2ccc(OCc3ccc(F)cc3)cc2)nn1)[C@](O)(Cn1cncn1)c1ccc(F)cc1F | > 64 | 0.125 (≈ 0.24 µM) | 0.0625 (≈ 0.12 µM) | – | – | – | – | – | –
10 | C[C@@H](c1cn(-c2ccc(OCc3ccc(C(F)(F)F)cc3)cc2)nn1)[C@](O)(Cn1cncn1)c1ccc(F)cc1F | 16 (≈ 28 µM) | 1 (≈ 1.75 µM) | 0.125 (≈ 0.219 µM) | – | – | – | – | – | –
11 | C[C@@H](c1cn(-c2ccc([N+](=O)[O-])cc2)nn1)[C@](O)(Cn1cncn1)c1ccc(F)cc1F | > 64 | – | 0.25 (≈ 0.566 µM) | – | – | – | – | – | –
12 | C[C@@H](c1cn(-c2ccc(Cl)cc2)nn1)[C@](O)(Cn1cncn1)c1cc(F)ccc1F | 32 (≈ 74.3 µM) | 0.125 (≈ 0.29 µM) | 0.125 (≈ 0.29 µM) | – | – | – | – | – | –
13 | C[C@@H](c1cn(-c2ccc(OC(F)F)cc2)nn1)[C@](O)(Cn1cncn1)c1ccc(F)cc1F | 8 (≈ 17.3 µM) | 0.0313 (≈ 0.0677 µM) | 0.125 (≈ 0.27 µM) | – | – | – | – | – | –
14 | C[C@@H](c1cn(-c2ccc(F)c(F)c2)nn1)[C@](O)(Cn1cncn1)c1ccc(F)cc1F | 8 (≈ 18.5 µM) | 0.0625 (≈ 0.145 µM) | 0.125 (≈ 0.289 µM) | – | – | – | – | – | –
15 | C[C@@H](c1cn(-c2ccc(Cl)cc2Cl)nn1)[C@](O)(Cn1cncn1)c1ccc(F)cc1F | > 8 | – | 0.125 (≈ 0.269 µM) | – | – | – | – | – | –
16 | C[C@@H](c1cn(-c2cc(F)cc(F)c2)nn1)[C@](O)(Cn1cncn1)c1ccc(F)cc1F | 8 (≈ 18.5 µM) | 0.0625 (≈ 0.145 µM) | 0.0625 (≈ 0.145 µM) | – | – | – | – | – | –
17 | CC(=O)c1ccc(-n2cc([C@H](C)[C@](O)(Cn3cncn3)c3ccc(F)cc3F)nn2)cc1 | > 64 | 0.125 (≈ 0.285 µM) | 0.25 (≈ 0.57 µM) | – | – | – | – | – | –
18 | C[C@@H](c1cn(-c2ccc(S(C)(=O)=O)cc2)nn1)[C@](O)(Cn1cncn1)c1ccc(F)cc1F | > 64 | 0.5 (≈ 1.05 µM) | 4 (≈ 8.43 µM) | – | – | – | – | – | –
19 | C[C@@H](c1cn(-c2ccccc2)nn1)[C@](O)(Cn1cncn1)c1ccc(F)cc1F | 4 (≈ 10.1 µM) | 0.0625 (≈ 0.158 µM) | 0.0625 (≈ 0.158 µM) | – | – | – | – | – | –
20 | C[C@@H](c1cn(-c2ccc(C#N)cc2)nn1)[C@](O)(Cn1cncn1)c1ccc(F)cc1F | > 64 | 0.125 (≈ 0.297 µM) | 0.25 (≈ 0.593 µM) | – | – | – | – | – | –
21 | C[C@@H](c1cn(-c2cccc(F)c2)nn1)[C@](O)(Cn1cncn1)c1ccc(F)cc1F | 16 (≈ 38.6 µM) | 0.0625 (≈ 0.151 µM) | 0.125 (≈ 0.302 µM) | – | – | – | – | – | –
22 | C[C@@H](c1cn(-c2ccc(Cl)cc2)nn1)[C@](O)(Cn1cncn1)c1ccc(F)cc1F | 4 (≈ 9.28 µM) | 0.0625 (≈ 0.145 µM) | 0.0156 (≈ 0.0362 µM) | – | – | – | – | – | –
23 | C[C@@H](c1cn(-c2ccc(O)cc2)nn1)[C@](O)(Cn1cncn1)c1ccc(F)cc1F | > 64 | 3 (≈ 7.27 µM) | 2 (≈ 4.85 µM) | – | – | – | – | – | –
24 | C[C@@H](c1cn(-c2ccc(OCc3ccc(OC(F)(F)F)cc3)cc2)nn1)[C@](O)(Cn1cncn1)c1ccc(F)cc1F | 8 (≈ 13.6 µM) | 0.25 (≈ 0.426 µM) | 0.0625 (≈ 0.107 µM) | – | – | – | – | – | –
25 | C[C@@H](c1cn(-c2ccc(OCc3ccc(C#N)cc3)cc2)nn1)[C@](O)(Cn1cncn1)c1ccc(F)cc1F | > 64 | 0.125 (≈ 0.237 µM) | – | – | – | – | – | – | –
26 | C[C@@H](c1cn(-c2ccc(OCc3ccc(Cl)cc3)cc2)nn1)[C@](O)(Cn1cncn1)c1ccc(F)cc1F | > 64 | 0.5 (≈ 0.931 µM) | 0.0625 (≈ 0.116 µM) | – | – | – | – | – | –
27 | C[C@@H](c1cn(-c2ccc(OC(F)(F)F)cc2)nn1)[C@](O)(Cn1cncn1)c1cc(F)ccc1F | 32 (≈ 66.6 µM) | 0.0625 (≈ 0.13 µM) | 0.125 (≈ 0.26 µM) | – | – | – | – | – | –

The remaining lines, values ahead:

Row | MIC (Aspergillus fumigatus) [µg/mL] | MIC (Candida albicans [1]) [µg/mL] | MIC (Cryptococcus neoformans [2]) [µg/mL] | MIC (Trichophyton rubrum) [µg/mL] | MIC (Nakaseomyces glabratus) [µg/mL] | MIC (Candida parapsilosis) [µg/mL] | MIC (Candida albicans [3]) [µg/mL] | MIC (Cryptococcus neoformans [4]) [µg/mL] | MIC (Nannizzia gypsea) [µg/mL] | SMILES
28 | 2 (≈ 4.63 µM) | 0.0625 (≈ 0.145 µM) | 0.0625 (≈ 0.145 µM) | 0.125 (≈ 0.289 µM) | 0.0313 (≈ 0.0724 µM) | 0.0313 (≈ 0.0724 µM) | 0.0625 (≈ 0.145 µM) | 0.0313 (≈ 0.0724 µM) | 2 (≈ 4.63 µM) | C[C@@H](c1cn(-c2ccc(F)cc2F)nn1)[C@](O)(Cn1cncn1)c1ccc(F)cc1F
29 | 4 (≈ 8.91 µM) | 0.0625 (≈ 0.139 µM) | 0.0625 (≈ 0.139 µM) | – | – | – | – | – | – | C[C@@H](c1cn(-c2ccc(Cl)cc2F)nn1)[C@](O)(Cn1cncn1)c1cc(F)ccc1F
30 | 4 (≈ 9.65 µM) | 0.0625 (≈ 0.151 µM) | 0.0625 (≈ 0.151 µM) | – | – | – | – | – | – | C[C@@H](c1cn(-c2ccc(F)cc2)nn1)[C@](O)(Cn1cncn1)c1ccc(F)cc1F
31 | 4 (≈ 8.33 µM) | 0.0313 (≈ 0.0652 µM) | 0.0625 (≈ 0.13 µM) | 0.15 (≈ 0.312 µM) | 0.125 (≈ 0.26 µM) | 0.125 (≈ 0.26 µM) | 0.0313 (≈ 0.0652 µM) | 0.0625 (≈ 0.13 µM) | 2 (≈ 4.16 µM) | C[C@@H](c1cn(-c2ccc(OC(F)(F)F)cc2)nn1)[C@](O)(Cn1cncn1)c1ccc(F)cc1F
32 | 2 (≈ 4.63 µM) | 0.0625 (≈ 0.145 µM) | 0.0625 (≈ 0.145 µM) | 0.25 (≈ 0.578 µM) | 0.0625 (≈ 0.145 µM) | 0.0625 (≈ 0.145 µM) | 0.0313 (≈ 0.0724 µM) | 0.0313 (≈ 0.0724 µM) | 2 (≈ 4.63 µM) | C[C@@H](c1cn(-c2cc(F)ccc2F)nn1)[C@](O)(Cn1cncn1)c1ccc(F)cc1F
33 | 2 (≈ 4.44 µM) | 0.125 (≈ 0.278 µM) | 0.125 (≈ 0.278 µM) | – | – | – | – | – | – | C[C@@H](c1cn(-c2cc(F)c(F)c(F)c2)nn1)[C@](O)(Cn1cncn1)c1ccc(F)cc1F
34 | 2 (≈ 4.27 µM) | 0.0625 (≈ 0.133 µM) | 0.0625 (≈ 0.133 µM) | – | – | – | – | – | – | C[C@@H](c1cn(-c2c(F)c(F)cc(F)c2F)nn1)[C@](O)(Cn1cncn1)c1ccc(F)cc1F
35 | 2 (≈ 4.05 µM) | 0.0313 (≈ 0.0633 µM) | 0.125 (≈ 0.253 µM) | – | – | – | – | – | – | C[C@@H](c1cn(-c2ccc(OCC(F)(F)F)cc2)nn1)[C@](O)(Cn1cncn1)c1ccc(F)cc1F
36 | 2 (≈ 4.63 µM) | 0.125 (≈ 0.289 µM) | 0.125 (≈ 0.289 µM) | – | – | – | – | – | – | C[C@@H](c1cn(-c2c(F)cccc2F)nn1)[C@](O)(Cn1cncn1)c1ccc(F)cc1F
37 | 2 (≈ 4.04 µM) | 0.0313 (≈ 0.0632 µM) | 0.0625 (≈ 0.126 µM) | – | – | – | – | – | – | C[C@@H](c1cn(-c2ccc(OCC(F)(F)F)nc2)nn1)[C@](O)(Cn1cncn1)c1ccc(F)cc1F
38 | 2 (≈ 3.8 µM) | 0.0156 (≈ 0.0296 µM) | 0.0625 (≈ 0.119 µM) | – | – | – | – | – | – | C[C@@H](c1cn(-c2ccc(OCC(F)(F)C(F)F)cc2)nn1)[C@](O)(Cn1cncn1)c1ccc(F)cc1F
39 | 2 (≈ 4.83 µM) | 0.0625 (≈ 0.151 µM) | 0.0625 (≈ 0.151 µM) | – | – | – | – | – | – | C[C@@H](c1cn(-c2ccccc2F)nn1)[C@](O)(Cn1cncn1)c1ccc(F)cc1F
40 | 2 (≈ 4.27 µM) | 0.0156 (≈ 0.0333 µM) | 0.0625 (≈ 0.133 µM) | – | – | – | – | – | – | CCCCOc1ccc(-n2cc([C@H](C)[C@](O)(Cn3cncn3)c3ccc(F)cc3F)nn2)cc1
